Data from patent US20220193171A1, “PHARMACEUTICAL COMPOSITION COMPRISING MIXTURE EXTRACT OF COPTIS RHIZOME AND SCHIZONEPETA TENUIFOLIA AS ACTIVE INGREDIENT FOR PREVENTION OR TREATMENT OF INFLAMMATORY BOWEL DISEASE” (HELIXMITH CO., LTD, priority 2019, published 2022).

How the values were obtained:
[1] = test system: DSS-induced enteritis model; assay: Effects of single herbal extracts in DSS-induced enteritis model (Example 2); type: in vivo, mice (C57BL/6); settings: 5-ASA 25 mg/kg orally once/day for 14 days; 2.5% DSS 5 days
Procedure: After 8-week-old male mice (C57BL/6) were acclimated for one week or longer, the mice were classified into: a normal group; a DSS and distilled water administration group in which Dextran Sulfate Sodium (DSS; 36,000-50,000 MW, MP Biomedicals, USA) was administered to induce ulcerative colitis and then distilled water was administered (negative control); a DSS and 5-aminosalicylic acid (5-ASA; Tokyo Chemical Industry Co., Japan) administration group (positive control group); and groups in which DSS and respective single herbal extracts prepared in Example 1 were administered (experimental groups).
(§1) The DSS-induced enteritis model has been known to show similar morphological changes and symptoms to human ulcerative colitis. The mice were fed 100 mL of DSS diluted in drinking water to 2.5%, which was then changed every two days. After the induction by DSS for 5 days, drinking water was changed.
5-ASA, used as a drug for the positive control group, was diluted in drinking water to 25 mg/kg, and administered orally once/day for 14 days from the start date of the experiment. Each single herbal extract was orally administered at a dose of 100 mg/kg once/day for 14 days from the start date of the experiment.
The mice of each group were weighed to calculate weight loss rates, and the feces state and the presence of bloody feces were checked, every day after the start of the experiment. Scoring was conducted for the three indicators according to the standards in Table 2 below.
Disease activity index (DAI), which is the sum calculated according to the scoring standards on Table 2 above, is shown in Table 3 below and FIG. 1.
On the last day of the experiment, the mice were sacrificed with carbon dioxide gas, and the colon site was excised. The colon length was measured from the excised colon, and then the state of the intestinal mucosa was investigated by incision in the longitudinal direction.
The histological colitis score was calculated by measuring the lengths of the mucosal ulcer site and the damaged mucosal layer in the colon tissue and averaging the values.

CCL2 = assay: Quantitative PCR of CCL2 expression in colon of DSS-induced colitis mice (Example 6); type: in vivo, mouse; settings: relative value vs normal group, GAPDH standard; colon RNA; 5-ASA 25 mg/kg orally
Procedure: (§2) RNA was isolated from the colon of the mice collected in Example 5 by using TRIzol (Invitrogen, USA). Thereafter, quantitative PCR through primers specific to the inflammatory factors TNF-α, IL-1β, IL-17, IL-23, CCL2, and MIP-2, and SYBR green (Takara, Japan) was performed using cDNA obtained by performing RT-PCR. The expression levels of RNA obtained therefrom were expressed as a relative change compared with the untreated group (normal group) by using GAPDH mRNA as the standard gene. The experimental results are shown in Tables 11 to 16 below and FIGS. 8 to 13.

[2] = test system: DNBS-induced enteritis model; assay: Effects of single herbal extracts on DNBS-induced enteritis model (Example 3); type: in vivo, mice (C57BL/6); settings: 5-ASA 25 mg/kg orally once/day for 5 days; DNBS rectal
Procedure: After 8-week-old male mice (C57BL/6) were acclimated for one week or longer, the mice were classified into: a normal group; a DNBS and distilled water administration group in which dinitrobenzene sulfonic acid (DNBS; Sigma-Aldrich, USA) was administered to induce inflammatory bowel disease and then distilled water was administered (negative control); a DNBS and 5-ASA administration group (positive control group); and groups in which DNBS and extracts of 11 kinds of herbs (Terminaliae Fructus, Selaginellae Herba, Schizonepeta tenuifolia Briquet, Geranii Herba, Psoraleae Semen, Thujae Orientalis Folium, Coptis Rhizome, Galla Rhois, Ailanthi Radicis Cortex, Puerariae Radix, and Liriopis Tuber) selected in Example 2 (experimental groups).
The DNBS-induced enteritis model is known to be closely related with human Crohn's disease in that T cell-mediated immune response is induced. DNBS in 50% ethanol/distilled water at 40 mg/mL was prepared, and 0.1 mL was slowly injected into the rectum of the mouse by using a catheter. 5-ASA, used as a drug for the positive control group, was diluted in drinking water to 25 mg/kg, and administered orally once/day for 5 days from the start date of the experiment. […]
On the last day of the experiment, the mice were sacrificed with carbon dioxide gas, and the colon site was excised, and the colon length was measured.

TNF-α = assay: Quantitative PCR of TNF-α expression in colon of DSS-induced colitis mice (Example 6); type: in vivo, mouse; settings: relative value vs normal group, GAPDH standard; colon RNA; 5-ASA 25 mg/kg orally
Procedure: as §2

IL-1β = assay: Quantitative PCR of IL-1β expression in colon of DSS-induced colitis mice (Example 6); type: in vivo, mouse; settings: relative value vs normal group, GAPDH standard; colon RNA; 5-ASA 25 mg/kg orally
Procedure: as §2

MIP-2 = assay: Quantitative PCR of MIP-2 expression in colon of DSS-induced colitis mice (Example 6); type: in vivo, mouse; settings: relative value vs normal group, GAPDH standard; colon RNA; 5-ASA 25 mg/kg orally
Procedure: as §2

IL-17 = assay: Quantitative PCR of IL-17 expression in colon of DSS-induced colitis mice (Example 6); type: in vivo, mouse; settings: relative value vs normal group, GAPDH standard; colon RNA; 5-ASA 25 mg/kg orally
Procedure: as §2

[3] = test system: DSS-induced enteritis model; assay: Effects of single and mixed herbal extracts on DSS-induced enteritis model (Example 11); type: in vivo, mice (C57BL/6); settings: 5-ASA 25 mg/kg orally once/day for 10 days; 2.5% DSS 5 days
Procedure: After 8-week-old male mice (C57BL/6) were acclimated for one week or longer, the mice were classified into: a normal group;
a DSS and distilled water administration group in which Dextran Sulfate Sodium (DSS; 36,000-50,000 MW, MP Biomedicals, USA) was administered to induce ulcerative colitis and then distilled water was administered (negative control); a DSS and 5-aminosalicylic acid (5-ASA; Tokyo Chemical Industry Co., Japan) administration group (positive control group); and groups in which together with DSS, Coptis Rhizome and Schizonepeta tenuifolia Briquet extracts prepared in Example 1 and mixed herbal extracts prepared in Example 7 were administered (experimental groups).
as §1
5-ASA, used as a drug for the positive control group, was diluted in drinking water to 25 mg/kg, and administered orally once/day for 10 days from the start date of the experiment. Each mixed herbal extract was orally administered at a dose of 50 mg/kg once/day for 10 days from the start date of the experiment.
The mice of each group were weighed to calculate weight loss rates every day after the start of the experiment.
In addition, DAI scores were calculated based on the results of the body weight change, feces state, and the presence of bloody feces, and the results are shown in Table 23 below and FIG. 17.
On the last day of the experiment, the mice were sacrificed with carbon dioxide gas, and the colon site was excised.

DSS-induced colitis mice [4] = assay: Comparison of single extracts and mixed extracts in DSS-induced colitis mice (Example 5); type: in vivo, mice (C57BL/6); settings: 5-ASA 25 mg/kg orally; 2.5% DSS 5 days
Procedure: After 8-week-old male mice (C57BL/6) were acclimated for one week or longer, the mice were classified into: a normal group; a DSS administration group, a DSS and distilled water administration group (negative control); a DSS and 5-ASA administration group (positive control group); and a group administered DSS and Coptis Rhizome 100 mg/kg, a group administered DSS and Schizonepeta tenuifolia Briquet 10 mg/kg, and a group administered DSS, Coptis Rhizome 100 mg/kg, and Schizonepeta tenuifolia Briquet 10 mg/kg (mixed extract administration group). The mice were fed 100 mL of DSS diluted in drinking water to 2.5%, which was then changed every two days. After DSS administration for 5 days, drinking water was changed. 5-ASA, used as a drug for the positive control group, was diluted in drinking water to 25 mg/kg, and orally administered. Coptis Rhizome 100 mg/kg, Schizonepeta tenuifolia Briquet 10 mg/kg, and a 10:1 mixture of Coptis Rhizome and Schizonepeta tenuifolia Briquet at a dose of 110 mg/kg were orally administered once/day for 14 days, and the body weight change rate, feces state, and the presence of bloody feces were checked every day.

IL-23 = assay: Quantitative PCR of IL-23 expression in colon of DSS-induced colitis mice (Example 6); type: in vivo, mouse; settings: relative value vs normal group, GAPDH standard; colon RNA; 5-ASA 25 mg/kg orally
Procedure: as §2

DSS-induced colitis mice [5] = assay: Effects of single herbal extracts with different concentration in DSS-induced colitis mice (Example 4); type: in vivo, mice (C57BL/6); settings: 5-ASA 25 mg/kg orally; 2.5% DSS 6 days
Procedure: After 8-week-old male mice (C57BL/6) were acclimated for one week or longer, the mice were classified into: a normal group; a DSS and distilled water administration group (negative control); a DSS and 5-ASA administration group (positive control group); and groups in which DSS and extracts of four kinds of herbs (Coptis Rhizome, […] Herba, Schizonepeta tenuifolia Briquet, and […] Herba) selected in Example 1 (experimental groups). The mice were fed 100 mL of DSS diluted in drinking water to 2.5%, which was then changed every two days. To evaluate the effects of single herbal extracts with different concentrations, DSS was administered for a total of 6 days, and then drinking water was changed. 5-ASA was distilled in drinking water to 25 mg/kg and orally administered. Each single herbal extract was orally administered at doses of 10, 30, and 100 mg/kg once/day for 14 days from the start date of the experiment, and the body weight change, feces state, and the presence of bloody feces were checked every day. In addition, DAI scores were calculated based on the results of the body weight change, feces state, and the presence of bloody feces, and the results are shown in Table 9 below and FIG. 6.

For `Nc1ccc(O)c(C(=O)O)c1` [Positive control, 5-aminosalicylic acid], the “Colon length (cm)” value [1] was 5.6 cm, the “DAI score of Day 10” value [1] was 2.4 and the Histological colitis score [1] was 1.00. For the same molecule, the CCL2 expression level (CCL2) was 3.26, the “Colon length (cm)” value [2] was 7.10 cm and the “Survival rate (%)” value [2] was 60%. The TNF-α expression level (TNF-α) was 2.16, the IL-1β expression level (IL-1β) was 2.28 and the MIP-2 expression level (MIP-2) was 1.86. The IL-17 expression level (IL-17) was 1.77, the “Body weight change rate for 10 days (%)” value [3] was −11.66% and the “Colon length (cm)” value [3] was 7.04 cm. For the same molecule, the “DAI score of DAY 10” value [3] was 4.8, the “DAI score of Day 10” value (DSS-induced colitis mice [4]) was 2.8 and the IL-23 expression level (IL-23) was 1.65. For the same molecule, the “Body weight change rate for 14 days (%)” value (DSS-induced colitis mice [5]) was −19.38% and the “DAI score of Day 10” value (DSS-induced colitis mice [5]) was 4.8.
